Assays:
Test in all cases: Kinase panel profiling
Type in all cases: biochemical
Conditions in all cases: 10 μM ATP
AKT3 = molecular target: T1, AKT3 (Homo sapiens, UniProt Q9Y243)
T1 construct: purchased Reaction Biology Corp
Procedure: (§1) Kinase panel profiling was conducted by Reaction Biology Corp. (San Diego, CA, USA). A single dose (1.0 μM) of 6r was tested against 371 recombinant human kinases in the presence of 10 μM ATP.

GSK3a = molecular target: T2, GSK3a (Homo sapiens, UniProt P49840)
T2 construct: purchased Reaction Biology Corp
Procedure: as §1

MASTL = molecular target: T3, MASTL (Homo sapiens, UniProt Q96GX5)
T3 construct: purchased Reaction Biology Corp
Procedure: as §1

AURORA B = molecular target: T4, AURORA B (Homo sapiens, UniProt Q96GD4)
T4 construct: purchased Reaction Biology Corp
Procedure: as §1

AXL = molecular target: T5, AXL (Homo sapiens, UniProt P30530)
T5 construct: purchased Reaction Biology Corp
Procedure: as §1

LCK2/ICK = molecular target: T6, LCK2/ICK (Homo sapiens, UniProt Q9UPZ9)
T6 construct: purchased Reaction Biology Corp
Procedure: as §1

PLK4/SAK = molecular target: T7, PLK4/SAK (Homo sapiens, UniProt O00444)
T7 construct: purchased Reaction Biology Corp
T7 sequence (O00444 whole entry): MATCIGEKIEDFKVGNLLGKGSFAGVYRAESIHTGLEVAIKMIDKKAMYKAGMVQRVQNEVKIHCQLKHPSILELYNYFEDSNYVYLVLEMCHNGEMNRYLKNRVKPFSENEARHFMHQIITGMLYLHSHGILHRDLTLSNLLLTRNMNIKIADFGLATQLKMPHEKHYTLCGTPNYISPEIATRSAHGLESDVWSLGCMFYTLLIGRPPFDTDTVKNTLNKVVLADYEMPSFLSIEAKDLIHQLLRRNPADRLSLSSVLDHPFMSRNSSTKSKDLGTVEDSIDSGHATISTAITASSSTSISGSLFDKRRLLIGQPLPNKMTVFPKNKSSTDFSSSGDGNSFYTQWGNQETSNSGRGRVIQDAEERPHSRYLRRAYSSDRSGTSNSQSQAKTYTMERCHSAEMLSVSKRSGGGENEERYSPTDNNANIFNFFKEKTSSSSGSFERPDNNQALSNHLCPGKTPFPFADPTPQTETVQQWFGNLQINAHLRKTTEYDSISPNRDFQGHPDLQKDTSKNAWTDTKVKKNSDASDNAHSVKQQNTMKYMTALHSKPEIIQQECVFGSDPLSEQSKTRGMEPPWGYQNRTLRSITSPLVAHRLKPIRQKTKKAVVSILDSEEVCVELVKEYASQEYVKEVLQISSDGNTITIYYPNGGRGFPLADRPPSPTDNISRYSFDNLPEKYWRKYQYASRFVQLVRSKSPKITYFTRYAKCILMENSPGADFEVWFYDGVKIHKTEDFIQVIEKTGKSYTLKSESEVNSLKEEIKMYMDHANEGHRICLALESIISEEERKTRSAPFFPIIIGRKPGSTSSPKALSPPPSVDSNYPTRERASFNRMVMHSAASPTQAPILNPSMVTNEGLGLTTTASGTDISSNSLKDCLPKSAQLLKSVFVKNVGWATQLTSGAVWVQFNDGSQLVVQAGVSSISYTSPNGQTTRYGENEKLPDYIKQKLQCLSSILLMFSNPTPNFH
Procedure: as §1

NLK = molecular target: T8, NLK (Homo sapiens, UniProt Q9UBE8)
T8 construct: purchased Reaction Biology Corp
T8 sequence (Q9UBE8 whole entry): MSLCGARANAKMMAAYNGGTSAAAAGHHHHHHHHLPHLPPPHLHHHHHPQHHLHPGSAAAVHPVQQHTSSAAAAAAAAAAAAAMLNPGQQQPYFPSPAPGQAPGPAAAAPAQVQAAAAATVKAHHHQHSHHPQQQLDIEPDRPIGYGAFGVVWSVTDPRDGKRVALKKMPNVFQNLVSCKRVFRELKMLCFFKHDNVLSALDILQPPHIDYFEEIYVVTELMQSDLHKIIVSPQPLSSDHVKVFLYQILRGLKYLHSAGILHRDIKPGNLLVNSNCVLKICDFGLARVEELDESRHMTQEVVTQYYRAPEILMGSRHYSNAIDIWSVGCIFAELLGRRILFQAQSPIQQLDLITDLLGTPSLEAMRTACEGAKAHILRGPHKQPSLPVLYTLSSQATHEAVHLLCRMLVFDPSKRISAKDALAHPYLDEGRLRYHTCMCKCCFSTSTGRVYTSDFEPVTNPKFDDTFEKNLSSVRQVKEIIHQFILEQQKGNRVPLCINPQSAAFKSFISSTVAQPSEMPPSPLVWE
Procedure: as §1

FMS = molecular target: T9, FMS (Homo sapiens, UniProt P07333)
T9 construct: purchased Reaction Biology Corp
Procedure: as §1

STK38/NDR1 = molecular target: T10, STK38/NDR1 (Homo sapiens, UniProt Q15208)
T10 construct: purchased Reaction Biology Corp
Procedure: as §1

MUSK = molecular target: T11, MUSK (Homo sapiens, UniProt O15146)
T11 construct: purchased Reaction Biology Corp
Procedure: as §1

CLK1 = molecular target: T12, CLK1 (Homo sapiens, UniProt P49759)
T12 construct: purchased Reaction Biology Corp
Procedure: as §1

LRRK2 = molecular target: T13, LRRK2 (Homo sapiens, UniProt Q5S007)
T13 construct: purchased Reaction Biology Corp
Procedure: as §1

SIK3 = molecular target: T14, SIK3 (Homo sapiens, UniProt Q9Y2K2)
T14 construct: purchased Reaction Biology Corp
Procedure: as §1

LYN = molecular target: T15, LYN (Homo sapiens, UniProt P07948)
T15 construct: purchased Reaction Biology Corp
Procedure: as §1

RIPK3 = molecular target: T16, RIPK3 (Homo sapiens, UniProt Q9Y572)
T16 construct: purchased Reaction Biology Corp
Procedure: as §1

RIPK2 = molecular target: T17, RIPK2 (Homo sapiens, UniProt O43353)
T17 construct: purchased Reaction Biology Corp
Procedure: as §1

ARK5/NUAK1 = molecular target: T18, ARK5/NUAK1 (Homo sapiens, UniProt O60285)
T18 construct: purchased Reaction Biology Corp
T18 sequence (O60285 whole entry): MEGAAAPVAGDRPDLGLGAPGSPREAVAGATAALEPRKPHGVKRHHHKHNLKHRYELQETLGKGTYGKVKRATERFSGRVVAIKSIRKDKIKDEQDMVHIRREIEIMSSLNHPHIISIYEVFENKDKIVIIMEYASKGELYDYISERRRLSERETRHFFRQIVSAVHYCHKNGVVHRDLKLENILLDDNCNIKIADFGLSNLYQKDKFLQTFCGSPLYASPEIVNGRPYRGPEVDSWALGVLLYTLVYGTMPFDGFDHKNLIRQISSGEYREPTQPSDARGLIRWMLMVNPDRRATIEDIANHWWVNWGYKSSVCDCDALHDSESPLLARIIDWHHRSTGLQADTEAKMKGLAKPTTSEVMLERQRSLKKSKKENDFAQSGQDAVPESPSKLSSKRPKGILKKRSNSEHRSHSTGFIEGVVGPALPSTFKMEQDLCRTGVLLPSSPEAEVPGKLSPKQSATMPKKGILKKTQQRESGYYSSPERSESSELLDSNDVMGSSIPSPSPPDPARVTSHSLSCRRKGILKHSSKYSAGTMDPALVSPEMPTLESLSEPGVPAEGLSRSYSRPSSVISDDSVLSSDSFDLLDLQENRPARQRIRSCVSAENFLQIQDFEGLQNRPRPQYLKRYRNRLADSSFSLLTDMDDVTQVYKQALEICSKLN
Procedure: as §1

SYK = molecular target: T19, SYK (Homo sapiens, UniProt P43405)
T19 construct: purchased Reaction Biology Corp
Procedure: as §1

PBK/TOPK = molecular target: T20, PBK/TOPK (Homo sapiens, UniProt Q96KB5)
T20 construct: purchased Reaction Biology Corp
Procedure: as §1

HIPK4 = molecular target: T21, HIPK4 (Homo sapiens, UniProt Q8NE63)
T21 construct: purchased Reaction Biology Corp
T21 sequence (Q8NE63 whole entry): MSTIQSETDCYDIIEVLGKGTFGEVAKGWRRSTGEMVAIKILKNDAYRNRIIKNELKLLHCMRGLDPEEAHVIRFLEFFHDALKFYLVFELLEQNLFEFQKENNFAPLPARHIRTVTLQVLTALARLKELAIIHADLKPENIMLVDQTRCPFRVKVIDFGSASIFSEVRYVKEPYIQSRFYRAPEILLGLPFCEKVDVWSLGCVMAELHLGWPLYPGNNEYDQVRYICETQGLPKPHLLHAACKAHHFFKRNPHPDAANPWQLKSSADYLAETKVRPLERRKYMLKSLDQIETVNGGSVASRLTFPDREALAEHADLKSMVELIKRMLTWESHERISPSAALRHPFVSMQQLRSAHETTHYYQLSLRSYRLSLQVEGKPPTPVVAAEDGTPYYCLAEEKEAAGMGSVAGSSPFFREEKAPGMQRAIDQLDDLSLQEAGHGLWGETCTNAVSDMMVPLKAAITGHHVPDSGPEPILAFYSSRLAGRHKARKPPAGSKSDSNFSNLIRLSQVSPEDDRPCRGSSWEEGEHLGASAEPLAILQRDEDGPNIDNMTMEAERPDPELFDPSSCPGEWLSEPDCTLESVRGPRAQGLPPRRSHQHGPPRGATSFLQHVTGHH
Procedure: as §1

JAK3 = molecular target: T22, JAK3 (Homo sapiens, UniProt P52333)
T22 construct: purchased Reaction Biology Corp
Procedure: as §1

EPHB4 = molecular target: T23, EPHB4 (Homo sapiens, UniProt P54760)
T23 construct: purchased Reaction Biology Corp
T23 sequence (P54760 16-987): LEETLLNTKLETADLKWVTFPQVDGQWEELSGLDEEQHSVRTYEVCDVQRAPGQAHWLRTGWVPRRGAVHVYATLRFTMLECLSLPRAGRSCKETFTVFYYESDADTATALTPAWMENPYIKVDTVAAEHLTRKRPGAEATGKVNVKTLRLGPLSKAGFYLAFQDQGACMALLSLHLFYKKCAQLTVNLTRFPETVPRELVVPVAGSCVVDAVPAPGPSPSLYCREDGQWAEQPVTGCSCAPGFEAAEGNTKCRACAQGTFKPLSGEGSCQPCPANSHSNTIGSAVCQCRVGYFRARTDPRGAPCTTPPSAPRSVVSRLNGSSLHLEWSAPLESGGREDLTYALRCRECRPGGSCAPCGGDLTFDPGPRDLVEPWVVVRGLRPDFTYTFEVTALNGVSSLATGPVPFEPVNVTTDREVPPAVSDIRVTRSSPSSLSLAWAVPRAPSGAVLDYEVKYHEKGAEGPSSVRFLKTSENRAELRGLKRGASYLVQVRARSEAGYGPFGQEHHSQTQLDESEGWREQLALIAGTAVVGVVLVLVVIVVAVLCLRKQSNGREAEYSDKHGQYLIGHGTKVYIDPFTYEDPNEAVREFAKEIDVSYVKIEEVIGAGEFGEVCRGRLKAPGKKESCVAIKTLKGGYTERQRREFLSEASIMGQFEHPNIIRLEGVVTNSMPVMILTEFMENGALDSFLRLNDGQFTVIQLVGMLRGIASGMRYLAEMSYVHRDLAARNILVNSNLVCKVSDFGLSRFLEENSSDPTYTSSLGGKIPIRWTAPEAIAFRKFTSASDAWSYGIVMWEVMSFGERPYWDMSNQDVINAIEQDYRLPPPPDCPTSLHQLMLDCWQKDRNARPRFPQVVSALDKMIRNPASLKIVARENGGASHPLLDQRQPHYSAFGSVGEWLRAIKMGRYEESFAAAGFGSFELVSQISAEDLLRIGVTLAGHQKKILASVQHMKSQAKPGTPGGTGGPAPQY
Procedure: as §1

FLT3 = molecular target: T24, FLT3 (Homo sapiens, UniProt P36888)
T24 construct: purchased Reaction Biology Corp
Procedure: as §1

AKT2 = molecular target: T25, AKT2 (Homo sapiens, UniProt P31751)
T25 construct: purchased Reaction Biology Corp
T25 sequence (P31751 whole entry): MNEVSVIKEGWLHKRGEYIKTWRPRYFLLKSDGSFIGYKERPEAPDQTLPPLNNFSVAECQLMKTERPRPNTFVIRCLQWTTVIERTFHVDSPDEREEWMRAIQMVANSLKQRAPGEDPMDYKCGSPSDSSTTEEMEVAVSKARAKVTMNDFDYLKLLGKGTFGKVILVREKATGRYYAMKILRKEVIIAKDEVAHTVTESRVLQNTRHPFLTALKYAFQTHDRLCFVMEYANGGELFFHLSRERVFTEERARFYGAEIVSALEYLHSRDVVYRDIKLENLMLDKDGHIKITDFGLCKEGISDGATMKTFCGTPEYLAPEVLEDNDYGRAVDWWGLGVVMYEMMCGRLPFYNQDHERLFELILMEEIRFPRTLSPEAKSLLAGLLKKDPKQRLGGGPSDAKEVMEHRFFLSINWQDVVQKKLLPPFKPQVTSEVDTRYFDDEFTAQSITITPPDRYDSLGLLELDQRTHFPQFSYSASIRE
Procedure: as §1

SNARK/NUAK2 = molecular target: T26, SNARK/NUAK2 (Homo sapiens, UniProt Q9H093)
T26 construct: purchased Reaction Biology Corp
Procedure: as §1

CK1G3 = molecular target: T27, CK1G3 (Homo sapiens, UniProt Q9Y6M4)
T27 construct: purchased Reaction Biology Corp
Procedure: as §1

TSSK3/STK22C = molecular target: T28, TSSK3/STK22C (Homo sapiens, UniProt Q96PN8)
T28 construct: purchased Reaction Biology Corp
Procedure: as §1

PIM1 = molecular target: T29, PIM1 (Homo sapiens, UniProt P11309)
T29 construct: purchased Reaction Biology Corp
Procedure: as §1

CDK9/cyclin T1 = molecular target: T30, CDK9/cyclin T1 (Homo sapiens, UniProt P50750)
T30 construct: purchased Reaction Biology Corp
Procedure: as §1

BRSK2 = molecular target: T31, BRSK2 (Homo sapiens, UniProt Q8IWQ3)
T31 construct: purchased Reaction Biology Corp
Procedure: as §1

RET = molecular target: T32, RET (Homo sapiens, UniProt P07949)
T32 construct: purchased Reaction Biology Corp
Procedure: as §1

LKB1 = molecular target: T33, LKB1 (Homo sapiens, UniProt Q15831)
T33 construct: purchased Reaction Biology Corp
Procedure: as §1

MEK5 = molecular target: T34, MEK5 (Homo sapiens, UniProt Q13163)
T34 construct: purchased Reaction Biology Corp
Procedure: as §1

PHKg2 = molecular target: T35, PHKg2 (Homo sapiens, UniProt P15735)
T35 construct: purchased Reaction Biology Corp
Procedure: as §1

DCAMKL2 = molecular target: T36, DCAMKL2 (Homo sapiens, UniProt Q8N568)
T36 construct: purchased Reaction Biology Corp
T36 sequence (Q8N568 whole entry): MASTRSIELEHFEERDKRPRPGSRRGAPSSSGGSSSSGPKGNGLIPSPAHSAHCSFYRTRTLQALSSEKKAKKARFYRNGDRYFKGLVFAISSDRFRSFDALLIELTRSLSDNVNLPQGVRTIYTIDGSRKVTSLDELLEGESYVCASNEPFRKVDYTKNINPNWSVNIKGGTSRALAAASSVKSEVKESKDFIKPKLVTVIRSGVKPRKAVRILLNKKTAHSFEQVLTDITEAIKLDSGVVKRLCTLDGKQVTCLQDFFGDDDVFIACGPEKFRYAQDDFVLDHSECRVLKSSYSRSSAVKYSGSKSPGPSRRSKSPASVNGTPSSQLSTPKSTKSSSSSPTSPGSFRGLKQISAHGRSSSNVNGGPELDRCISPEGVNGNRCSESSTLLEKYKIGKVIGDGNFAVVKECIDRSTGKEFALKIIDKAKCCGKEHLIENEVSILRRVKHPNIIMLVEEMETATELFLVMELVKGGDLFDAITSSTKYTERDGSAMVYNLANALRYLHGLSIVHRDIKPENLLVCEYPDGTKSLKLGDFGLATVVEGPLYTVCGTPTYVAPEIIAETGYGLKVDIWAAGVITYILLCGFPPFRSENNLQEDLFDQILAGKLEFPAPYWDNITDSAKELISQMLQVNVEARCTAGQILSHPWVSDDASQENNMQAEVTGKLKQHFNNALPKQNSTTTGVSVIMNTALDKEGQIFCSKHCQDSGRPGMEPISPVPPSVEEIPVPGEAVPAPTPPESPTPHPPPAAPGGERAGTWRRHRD
Procedure: as §1

MAPKAPK3 = molecular target: T37, MAPKAPK3 (Homo sapiens, UniProt Q16644)
T37 construct: purchased Reaction Biology Corp
Procedure: as §1

KSR1 = molecular target: T38, KSR1 (Homo sapiens, UniProt Q8IVT5)
T38 construct: purchased Reaction Biology Corp
Procedure: as §1

CSK = molecular target: T39, CSK (Homo sapiens, UniProt P41240)
T39 construct: purchased Reaction Biology Corp
Procedure: as §1

CAMK2a = molecular target: T40, CAMK2a (Homo sapiens, UniProt Q9UQM7)
T40 construct: purchased Reaction Biology Corp
Procedure: as §1

PKCtheta = molecular target: T41, PKCtheta (Homo sapiens, UniProt Q04759)
T41 construct: purchased Reaction Biology Corp
Procedure: as §1

HIPK3 = molecular target: T42, HIPK3 (Homo sapiens, UniProt Q9H422)
T42 construct: purchased Reaction Biology Corp
Procedure: as §1

MAPKAPK2 = molecular target: T43, MAPKAPK2 (Homo sapiens, UniProt P49137)
T43 construct: purchased Reaction Biology Corp
Procedure: as §1

Work on `Cc1ccc(NC(=O)c2ccc(CN3CCN(C)CC3)c(C(F)(F)F)c2)cc1-c1cnc2sc(N)nc2c1` [6r] yielded an inhibition at 1 µM (AKT3) of 13.6%, an inhibition at 1 µM (GSK3a) of 7.4% and an inhibition at 1 µM (MASTL) of 1.3%. The inhibition at 1 µM (AURORA B) was 0%, the inhibition at 1 µM (AXL) was 15.8% and the inhibition at 1 µM (LCK2/ICK) was 60.8%. It also gave an inhibition at 1 µM (PLK4/SAK) of 10.4%, an inhibition at 1 µM (NLK) of 7.3% and an inhibition at 1 µM (FMS) of 99%. The inhibition at 1 µM (STK38/NDR1) was 17.1%, the inhibition at 1 µM (MUSK) was 10.8% and the inhibition at 1 µM (CLK1) was 0%. It also gave an inhibition at 1 µM (LRRK2) of 5.1%, an inhibition at 1 µM (SIK3) of 0% and an inhibition at 1 µM (LYN) of 97.5%. It also gave an inhibition at 1 µM (RIPK3) of 82.5%, an inhibition at 1 µM (RIPK2) of 20.6% and an inhibition at 1 µM (ARK5/NUAK1) of 14.7%. For the same compound, the inhibition at 1 µM (SYK) was 3.2%, the inhibition at 1 µM (PBK/TOPK) was 4.3% and the inhibition at 1 µM (HIPK4) was 8.7%. For the same compound, the inhibition at 1 µM (JAK3) was 7.8%, the inhibition at 1 µM (EPHB4) was 27.3% and the inhibition at 1 µM (FLT3) was 0%. It also gave an inhibition at 1 µM (AKT2) of 14%, an inhibition at 1 µM (SNARK/NUAK2) of 0% and an inhibition at 1 µM (CK1G3) of 32%. The inhibition at 1 µM (TSSK3/STK22C) was 0%, the inhibition at 1 µM (PIM1) was 13.6% and the inhibition at 1 µM (CDK9/cyclin T1) was 0%. It also gave an inhibition at 1 µM (BRSK2) of 7.2%, an inhibition at 1 µM (RET) of 99.4% and an inhibition at 1 µM (LKB1) of 0%. For the same compound, the inhibition at 1 µM (MEK5) was 6.5%, the inhibition at 1 µM (PHKg2) was 5% and the inhibition at 1 µM (DCAMKL2) was 0%. It also gave an inhibition at 1 µM (MAPKAPK3) of 10.7%, an inhibition at 1 µM (KSR1) of 5.5% and an inhibition at 1 µM (CSK) of 41.3%. The inhibition at 1 µM (CAMK2a) was 16%, the inhibition at 1 µM (PKCtheta) was 6.9% and the inhibition at 1 µM (HIPK3) was 0.2%. For the same compound, the inhibition at 1 µM (MAPKAPK2) was 12.5%.

From PMC9817970 (Cancers, 2022)
